In patent publication US20240082228A1, “SARS-COV-2 THERAPEUTICS” (priority 2021, published 2024):
Where “and” joins values, the source holds several entries; their conditions need not be identical. Identical values can stand only once. Like-named read-outs stand apart in the source and are kept apart here.

Legend:
SARS-CoV-2 = assay: microbe, parasite or virus in culture; type: cell-based; conditions: for activity at 1 µM: Severe acute respiratory syndrome coronavirus 2, 1 uM, read-out: Normalized Infection (1 uM); for activity at 1 µM / activity at 5 µM: single replicate, relative to negative control DMSO; for HIT: overall, 1 or 5 uM; for activity at 5 µM: Severe acute respiratory syndrome coronavirus 2, 5 uM, read-out: Normalized Infection (5 uM)
[1] = for Average Cell Number (1 uM) / Cell Number (1 uM) / Normalized Cell Number (1 uM): compound at 1 uM; for Average Cell Number (1 uM) / Average Cell Number (5 uM): average of normalized cell number, n=3, relative to DMSO; for Cell Number (1 uM) / Normalized Cell Number (1 uM) / Cell Number (5 uM) / Normalized Cell Number (5 uM): single replicate; for Cell Number (1 uM) / Cell Number (5 uM): raw cell count; for Normalized Cell Number (1 uM) / Normalized Cell Number (5 uM): relative to negative control DMSO; for Average Cell Number (5 uM) / Cell Number (5 uM) / Normalized Cell Number (5 uM): compound at 5 uM
[2] = 1 uM, average log2FC infection (n=3) relative to DMSO
[3] = 5 uM, average log2FC infection (n=3) relative to DMSO

Structure (SMILES) | HIT (2 Std, 1 uM) (SARS-CoV-2; 1 uM) | Average Infection (1 uM) (SARS-CoV-2; [2]) | HIT (2 Stdv, 5 uM) (SARS-CoV-2; 5 uM) | Average Infection (5 uM) (SARS-CoV-2; [3]) | activity at 1 µM (SARS-CoV-2) [%] | HIT (SARS-CoV-2) | Toxic (5 uM) [1] | Average Cell Number (1 uM) [1] | Cell Number (1 uM) [1] | Normalized Cell Number (1 uM) [1] | Average Cell Number (5 uM) [1] | Cell Number (5 uM) [1] | Normalized Cell Number (5 uM) [1] | Toxic (1 uM) [1] | activity at 5 µM (SARS-CoV-2) [%] | Average Infection (1 uM) (SARS-CoV-2) | Average Infection (5 uM) (SARS-CoV-2)
CC1(C)Cc2c(-c3ccccc3)c(-c3ccc(Cl)cc3)c(CC(=O)O)n2C1 [Licofelone, licofelone] | HIT | −0.7411 | HIT | −0.555 | 59.1 | Yes | 0 (non-toxic (Normalized Cell number>0.65) | 0.6254 | 3716 and 3591 and 3687 | 0.6341 and 0.6128 and 0.6292 | 0.8061 | 4830 and 4798 and 4704 | 0.815 and 0.8096 and 0.7938 | – | – | – | –
O=C(O)CC[C@H]1CC[C@@](c2cc(F)ccc2F)(S(=O)(=O)c2ccc(Cl)cc2)CC1 [MK-0752, mk-0752] | HIT | −0.4386 | – | −0.353 | 70.8 | Yes | 0 (non-toxic (Normalized Cell number>0.65) | 0.6912 | 3905 and 4070 and 4177 | 0.6664 and 0.6945 and 0.7128 | 0.8746 | 5100 and 5130 and 5319 | 0.8606 and 0.8656 and 0.8975 | 0 (non-toxic (Normalized Cell number>0.65) | – | – | –
O=C(O)Cn1nnc(-c2cc(N3CCC(Oc4cc(F)ccc4Br)CC3)no2)n1 [MK-8245, mk-8245] | HIT | 0.7764 | – | −0.05739 | – | Yes | 0 (non-toxic (Normalized Cell number>0.65) | 0.7263 | – | – | 0.9401 | 5812 and 4892 and 6009 | 0.9807 and 0.8255 and 1.014 | 0 (non-toxic (Normalized Cell number>0.65) | – | – | –
CC1(C)S[C@@H]2[C@H](/N=C/N3CCCCCC3)C(=O)N2[C@H]1C(=O)O [Mecillinam, mecillinam] | HIT | −3.47 | – | −0.06608 | – | Yes | 0 (non-toxic (Normalized Cell number>0.65) | 1.097 | 6136 and 6699 and 6450 | 1.047 and 1.143 and 1.101 | 0.9928 | 6088 and 5755 and 5808 | 1.027 and 0.9711 and 0.9801 | 0 (non-toxic (Normalized Cell number>0.65) | 104 | – | –
CN(C)[C@@H]1C(O)=C(C(N)=O)C(=O)[C@@]2(O)C(O)=C3C(=O)c4c(O)cccc4[C@@](C)(O)[C@H]3[C@H](O)[C@@H]12 [Oxytetracycline, oxytetracycline] | HIT | −0.4729 | – | −0.1642 | 83.8 | Yes | 0 (non-toxic (Normalized Cell number>0.65) | 0.8352 | 5031 and 4848 and 4803 | 0.8585 and 0.8273 and 0.8196 | 0.976 | 6014 and 5768 and 5570 | 1.015 and 0.9733 and 0.9399 | 0 (non-toxic (Normalized Cell number>0.65) | – | – | –
N=C(N)c1ccc2nc(-c3cc(CC(=O)N[C@@H](CC(=O)O)C(=O)O)cc(-c4cc(S(N)(=O)=O)ccc4O)c3O)[nH]c2c1 [PCl 27483, pci-27483] | HIT | −0.6789 | – | 0.006187 | 58 | Yes | 0 (non-toxic (Normalized Cell number>0.65) | 0.775 | 4643 and 4781 and 4200 | 0.7923 and 0.8159 and 0.7167 | 0.9439 | 5909 and 5702 and 5170 | 0.9971 and 0.9622 and 0.8724 | 0 (non-toxic (Normalized Cell number>0.65) | 104 | – | –
CC(C)OC(=O)[C@H](C)N[P@](=O)(OC[C@H]1O[C@@H](n2ccc(=O)[nH]c2=O)[C@](C)(F)[C@@H]1O)Oc1ccccc1 [PSI-7977, Sofosbuvir] | – | – | HIT | – | 80.9 | Yes | 0 (non-toxic (Normalized Cell number>0.65) | 1.039 | 6209 and 5916 and 6135 | 1.06 and 1.01 and 1.047 | 0.991 | 5941 and 5681 and 5997 | 1.002 and 0.9586 and 1.012 | 0 (non-toxic (Normalized Cell number>0.65) | 70.5 | −0.27 | −0.4905
CCC[C@H](N[C@@H](C)C(=O)N1[C@H](C(=O)O)C[C@@H]2CCCC[C@@H]21)C(=O)OCC [Perindopril, perindopril] | HIT | −0.8775 | – | −0.1846 | 62.3 | Yes | 0 (non-toxic (Normalized Cell number>0.65) | 0.7365 | 4330 and 4259 and 4358 | 0.7389 and 0.7268 and 0.7437 | 0.9903 | 5734 and 6091 and 5782 | 0.9676 and 1.028 and 0.9757 | 0 (non-toxic (Normalized Cell number>0.65) | 96.4 | – | –
CCCCC[C@H](O)/C=C/[C@@H]1[C@@H](C/C=C\CCCC(=O)O)[C@@H](O)C[C@H]1O [Prostagladin F2a, dinoprost] | HIT | −0.6806 | – | −0.2282 | 58.9 | Yes | – | 0.8973 | – | 0.8613 and 0.9247 and 0.906 | 0.9858 | – | 0.988 and 0.9765 and 0.9929 | – | 83.1 | – | –
Cc1cncc(CN2CCC(=C3c4ccc(Cl)cc4CCc4cccnc43)CC2)c1 [Rupatadine, rupatadine] | HIT | – | – | – | 51.5 | Yes | 0 (non-toxic (Normalized Cell number>0.65) | 0.795 | 4468 and 4936 and 4572 | 0.7625 and 0.8423 and 0.7802 | 0.9184 | 5730 and 5462 and 5136 | 0.9669 and 0.9217 and 0.8667 | 0 (non-toxic (Normalized Cell number>0.65) | 88.1 | −0.7916 | −0.09608
C[C@@H]1CN(Cc2ccc(F)cc2)[C@@H](C)CN1C(=O)c1cc2c(C(=O)C(=O)N(C)C)cn(C)c2cc1Cl [SCIO 469, talmapimod] | HIT | −1.039 | HIT | −0.8454 | 47.9 | Yes | 0 (non-toxic (Normalized Cell number>0.65) | 0.7439 | 3987 and 4564 and 4526 | 0.6804 and 0.7788 and 0.7724 | 0.95 | 5672 and 5345 and 5872 | 0.9571 and 0.9019 and 0.9909 | 0 (non-toxic (Normalized Cell number>0.65) | 57.5 | – | –
COc1nc2ccc(Br)cc2cc1[C@@H](c1ccccc1)[C@@](O)(CCN(C)C)c1cccc2ccccc12 [TMC207, bedaquiline] | HIT | −0.3556 | HIT | −0.559 | 72.7 | Yes | 0 (non-toxic (Normalized Cell number>0.65) | 0.6048 | 3465 and 3507 and 3661 | 0.5913 and 0.5985 and 0.6247 | 0.8191 | 5108 and 4528 and 4927 | 0.8619 and 0.7641 and 0.8314 | – | 65.9 | – | –
CC(C(=O)O)c1ccc(C(=O)c2ccccc2)s1 (centres unmarked) [Tiaprofenic Acid, tiaprofenic acid] | HIT | −0.4462 | – | −0.06461 | 71.2 | Yes | 0 (non-toxic (Normalized Cell number>0.65) | 0.8638 | 5511 and 5420 and 4255 | 0.9404 and 0.9249 and 0.7261 | 0.9679 | 6146 and 5679 and 5383 | 1.037 and 0.9583 and 0.9083 | 0 (non-toxic (Normalized Cell number>0.65) | – | – | –
